Patent US10604509B2, “Nrf2 regulators” (GlaxoSmithKline Intellectual Property Development Limited, priority 2015, dated 2020)
Where a name gives a salt, the structure may show the parent alone. Read-outs that look alike come from different tables or passages of the source.

Test system: NQO1 specific enzyme activity in BEAS-2B cells
Assay: BEAS-2B NQO1 MTT assay
Format: cell-based
Conditions: BEAS-2B cells, 48 hours with compound, MTT readout, read-out: EC50 of NQO1 specific activity induction
Summary of the method: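 BEAS-2B cells treated with compound 48 h at 37° C, 5% CO2, then lysed; NQO1 activity in lysate measured kinetically by MTT cocktail at Absorbance 570 nm over 30 min. EC50 for induction from Delta OD/min versus log concentration, 3-parameter fit; Cell Titer Glo run on lysate aliquot.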

Structure (SMILES) | EC50 (Homo sapiens, BEAS-2B, 48 h) [nM] | also measured
CC[C@@H]1CN(Cc2cc([C@H](CC(=O)O)c3ccc4c(nnn4CC)c3C)ccc2C)Cc2ccccc2O1 [Example 68, (S)-3-(3-(((R)-2-Ethyl-2,3-dihydrobenzo[f][1,4]oxazepin-4(5H)-yl)methyl)-4-methylphenyl)-3-(1-ethyl-4-methyl-1H-benzo[d][1,2,3]triazol-5-yl)propanoic Acid, Formic Acid Salt] | 10 to 100 | 
Cc1ccc([C@H](CC(=O)O)c2ccc3c(nnn3C)c2C)cc1CN1Cc2ccccc2OC(C)(C)C1 [Example 109, (S)-3-(1,4-dimethyl-1H-benzo[d][1,2,3]triazol-5-yl)-3-(3-((2,2-dimethyl-2,3-dihydrobenzo[f][1,4]oxazepin-4(5H)-yl)methyl)-4-methylphenyl)propanoic Acid, Formic Acid Salt] | 100 to 1000 | 
Cc1ccc(C(c2ccc3c(nnn3C)c2C)C(C)(C)C(=O)O)cc1CN1Cc2cnccc2OC(C)(C)C1 (stereo not shown) [Example 22, 3-(1,4-Dimethyl-1H-benzo[d][1,2,3]triazol-5-yl)-3-(3-((2,2-dimethyl-2,3-dihydropyrido[3,4-f][1,4]oxazepin-4(5H)-yl)methyl)-4-methylphenyl)-2,2-dimethylpropanoic Acid, Trifluoroacetic Acid] | 1 to 10 | 
CC[C@@H]1CN(Cc2cc(C(CC(=O)O)c3ccc4c(nnn4C)c3C)ccc2C)Cc2cc(Cl)ccc2O1 (stereo partly drawn) [Example 77, Ammonium 3-(3-(((R)-7-Chloro-2-ethyl-2,3-dihydrobenzo[f][1,4]oxazepin-4(5H)-yl)methyl)-4-methylphenyl)-3-(1,4-dimethyl-1H-benzo[d][1,2,3]triazol-5-yl)propanate] | 1000 to 10000 | 
CC[C@@H]1CN(Cc2cc([C@H](CC(=O)O)c3ccc4c(nnn4CC)c3F)ccc2C)Cc2cnccc2O1 [Example 53, (S)-3-(3-(((R)-2-Ethyl-2,3-dihydropyrido[3,4-f][1,4]oxazepin-4(5H)-yl)methyl)-4-methylphenyl)-3-(1-ethyl-4-fluoro-1H-benzo[d][1,2,3]triazol-5-yl)propanoic acid] | 100 to 1000 | 
Cc1ccc([C@@H](CC(=O)O)c2ccc3c(nnn3C)c2C)cc1CN1Cc2cc(F)ccc2OC(C)(C)C1 [Example 57, (R)-3-(1,4-Dimethyl-1H-benzo[d][1,2,3]triazol-5-yl)-3-(3-((7-fluoro-2,2-dimethyl-2,3-dihydrobenzo[f][1,4]oxazepin-4(5H)-yl)methyl)-4-methylphenyl)propanoic acid, 0.7formic acid salt] |  | EC50: 10 to 100 nM
CC[C@@H]1CN(Cc2cc(C(CCc3cn(CC)nn3)C(C)C(=O)O)ccc2C)Cc2ncccc2O1 (stereo partly drawn) [Example 224, 5-(1-Ethyl-1H-1,2,3-triazol-4-yl)-3-(3-(((R)-2-ethyl-2,3-dihydropyrido[2,3-f][1,4]oxazepin-4(5H)-yl)methyl)-4-methylphenyl)-2-methylpentanoic Acid, 0.20 Formic Acid Salt] | 100 to 1000 | 
CC[C@@H]1CN(Cc2cc(C(CCc3cn(CC)nn3)C(C)(C)C(=O)O)ccc2C)Cc2ccncc2O1 (stereo partly drawn) [Example 220, 5-(1-Ethyl-1H-1,2,3-triazol-4-yl)-3-(3-(((R)-2-ethyl-2,3-dihydropyrido[4,3-f][1,4]oxazepin-4(5H)-yl)methyl)-4-methylphenyl)-2,2-dimethylpentanoic Acid, 3.2 Trifluoroacetic Acid Salt] | 10 to 100 | 
CC[C@@H]1CN(Cc2cc(C(CC(=O)O)c3ccc4c(nnn4C)c3C)ccc2C)Cc2cccc(C)c2O1 (stereo partly drawn) [Example 76, Ammonium 3-(1,4-Dimethyl-1H-benzo[d][1,2,3]triazol-5-yl)-3-(3-(((R)-2-ethyl-9-methyl-2,3-dihydrobenzo[f][1,4]oxazepin-4(5H)-yl)methyl)-4-methylphenyl)propanate] | 100 to 1000 | 
CC[C@@H]1CN(Cc2cc([C@H](c3ccc4c(nnn4C)c3C)[C@@H](C)C(=O)O)ccc2C)Cc2ccccc2O1 [Example 40, (2R,3R)-3-(1,4-Dimethyl-1H-benzo[d][1,2,3]triazol-5-yl)-3-(3-(((R)-2-ethyl-2,3-dihydrobenzo[f][1,4]oxazepin-4(5H)-yl)methyl)-4-methylphenyl)-2-methylpropanoic Acid] | 10 to 100 | 
CC[C@@H]1CN(Cc2cc([C@H](CC(=O)O)c3ccc4c(nnn4C)c3C)ccc2C)Cc2ncccc2O1 [Example 258, (S)-3-(1,4-dimethyl-1H-benzo[d][1,2,3]triazol-5-yl)-3-(3-(((R)-2-ethyl-2.3-dihydropyrido[2,3-f][1,4]oxazepin-4(5H)-yl)methyl)-4-methylphenyl)propionic Acid] |  | EC50 (Homo sapiens): 10 to 100 nM
CCC1Cc2ccccc2CN(Cc2cc(C(CC(=O)O)c3ccc4c(nnn4C)c3C)ccc2C)C1 (stereo not shown) [Example 106, 3-(1,4-Dimethyl-1H-benzo[d][1,2,3]triazol-5-yl)-3-(3-((4-ethyl-4,5-dihydro-1H-benzo[c]azepin-2(3H)-yl)methyl)-4-methylphenyl)propanoic Acid] | 100 to 1000 | 
CCC1(C)CN(Cc2cc([C@@H](c3ccc4c(nnn4C)c3C)C(C)(C)C(=O)O)ccc2C)Cc2ccccc2O1 (stereo partly drawn) [Example 240, (3S)-3-(1,4-Dimethyl-1H-benzo[d][1,2,3]triazol-5-yl)-3-(3-((2-ethyl-2-methyl-2,3-dihydrobenzo[f][1,4]oxazepin-4(5H)-yl)methyl)-4-methylphenyl)-2,2-dimethylpropanoic Acid] | 1 to 10 | 
Cc1ccc2c(c1)CN(Cc1cc([C@H](CC(=O)O)c3ccc4c(nnn4C)c3C)ccc1C)CC(C)(C)O2 [Example 176, (S)-3-(1,4-Dimethyl-1H-benzo[d][1,2,3]triazol-5-yl)-3-(4-methyl-3-((2,2,7-trimethyl-2,3-dihydrobenzo[f][1,4]oxazepin-4(5H)-yl)methyl)phenyl) propanoic acid] | 10 to 100 | 
CC[C@@H]1CN(Cc2cc([C@H](CC(=O)O)c3ccc4c(nnn4CC)c3Cl)ccc2C)Cc2ccccc2O1 [Example 66, (S)-3-(4-Chloro-1-ethyl-1H-benzo[d][1,2,3]triazol-5-yl)-3-(3-(((R)-2-ethyl-2,3-dihydrobenzo[f][1,4]oxazepin-4(5H)-yl)methyl)-4-methylphenyl)propanoate, Sodium Salt] |  | EC50: 10 to 100 nM
CCC1CN(Cc2cc(C(CC(=O)O)c3ccc4c(nnn4C)c3C)ccc2C)Cc2cc(F)ccc2O1 (stereo not shown) [Example 87, 3-(1,4-Dimethyl-1H-benzo[d][1,2,3]triazol-5-yl)-3-(3-((2-ehtyl-7-fluoro-2,3-dihydrobenzo[f][1,4]oxazepin-4(5H)-yl)methyl)-4-methylphenyl)propanoic acid] | 10 to 100 | 
CC[C@@H]1CN(Cc2cc([C@@H](c3ccc4c(nnn4C)c3C)C(C)(C)C(=O)NS(C)(=O)=O)ccc2C)Cc2cnccc2O1 [Example 205, (S)-3-(1,4-Dimethyl-1H-benzo[d][1,2,3]triazol-5-yl)-3-(3-(((R)-2-ethyl-2,3-dihydropyrido[3,4-f][1,4]oxazepin-4(5H)-yl)methyl)-4-methylphenyl)-2,2-dimethyl-N-(methylsulfonyl)propanamide, Trifluoroacetic Acid Salt] | 100 to 1000 | 
CC[C@@H]1CN(Cc2cc(C(CC(=O)O)c3ccc4c(nnn4C)c3C)ccc2C)Cc2cc(F)ccc2O1 (stereo partly drawn) [Example 78, 3-(1,4-Dimethyl-1H-benzo[d][1,2,3]triazol-5-yl)-3-(3-(((R)-2-ethyl-7-fluoro-2,3-dihydrobenzo[f][1,4]oxazepin-4(5H)-yl)methyl)-4-methylphenyl)propanoic acid, formic acid salt] | 1000 to 10000 | 
CCn1nnc2c(F)c([C@H](c3ccc(C)c(CN4Cc5ccccc5OC(C)(C)C4)c3)[C@@H](C)C(=O)O)ccc21 [Example 193, (2R,3S)-3-(3-((2,2-Dimethyl-2,3-dihydro-benzo[f][1,4]oxazepin-4(5H)-yl)methyl)-4-methylphenyl)-3-(1-ethyl-4-fluoro-1H-benzo[d][1,2,3]triazol-5-yl)-2-methylpropanoic acid, Sodium salt] | 1 to 10 | 
CC[C@@H]1CN(Cc2cc(C(CC(=O)O)c3ccc4c(nnn4C)c3C)ccc2C)Cc2ccc(C)cc2O1 (stereo partly drawn) [Example 85, Ammoniumn 3-(1,4-Dimethyl-1H-benzo[d][1,2,3]triazol-5-yl)-3-(3-(((R)-2-ethyl-8-methyl-2,3-dihydrobenzo[f][1,4]oxazepin-4(5H)-yl)methyl)-4-methyphenyl)propanoate] | 100 to 1000 | 
Cc1ccc(C(c2ccc3c(nnn3C)c2C)C(C)(C)C(=O)O)cc1CN1CCCc2ccccc2C1 (stereo not shown) [Example 104, 3-(3-((4,5-Dihydro-1H-benzo[c]azepin-2(3H)-yl)methyl)-4-methylphenyl)-3-(1,4-dimethyl-1H-benzo[d][1,2,3]triazol-5-yl)-2,2-dimethylpropanoic acid] | 1 to 10 | 
Cc1ccc(C(CC(=O)O)c2ccc(F)cc2C)cc1Cn1ccnc1CC1CCCCC1 (stereo not shown) [Example 135, 3-(3-((2-(Cyclohexylmethyl)-1H-imidazol-1-yl)methyl)-4-methylphenyl)-3-(4-fluoro-2-methylphenyl)propanoic Acid] | 10 to 100 | 
Cc1ccc(C(CC(=O)O)c2ccc3c(nnn3C)c2C)cc1CN1Cc2ccccc2OC2(CC2)C1 (stereo not shown) [Example 243, 3-(3-((3H-Spiro[benzo[f][1,4]oxazepine-2,1′-cyclopropan]-4(5H)-yl)methyl)-4-methylphenyl)-3-(1,4-dimethyl-1H-benzo[d][1,2,3]triazol-5-yl)propanoic Acid] | 100 to 1000 | 
Cc1ccc(C(CC(=O)O)c2ccc3c(nnn3C)c2C)cc1CN1Cc2ccc(C#N)cc2OC(C)(C)C1 (single isomer, unassigned) [Example 174] |  | EC50: 10 to 100 nM
CC[C@@H]1CN(Cc2cc([C@@H](CC(=O)O)c3ccc4c(nnn4CC)c3Cl)ccc2C)Cc2ccccc2O1 [Example 67, (R)-3-(4-Chloro-1-ethyl-1H-benzo[d][1,2,3]triazol-5-yl)-3-(3-(((R)-2-ethyl-2,3-dihydrobenzo[f][1,4]oxazepin-4(5H)-yl)methyl)-4-methylphenyl)propanoate, Sodium Salt] | 10 to 100 | 
